Measurements as given in ChEMBL document CHEMBL1147482, “Novel and potent transforming growth factor beta type I receptor kinase domain inhibitor: 7-amino 4-(2-pyridin-2-yl-5,6-dihydro-4H-pyrrolo[1,2-b]pyrazol-3-yl)-quinolines” (Bioorg Med Chem Lett, 2004).

Assays:
[1] = molecular target: Mitogen-activated protein kinase 14 (Homo sapiens, UniProt Q16539); assay: Inhibitory activity against Mitogen-activated protein kinase p38
[2] = tested on: NIH3T3; assay: Inhibitory activity tested in NIH 3T3 cells; assay type: functional, cell-based; conditions: Mus musculus
[3] = Inhibitory activity against TGF-beta dependent luciferase production in mink lung cells p3TP Lux; assay type: functional, cell-based

Sequence of Mitogen-activated protein kinase 14 (Q16539 whole entry): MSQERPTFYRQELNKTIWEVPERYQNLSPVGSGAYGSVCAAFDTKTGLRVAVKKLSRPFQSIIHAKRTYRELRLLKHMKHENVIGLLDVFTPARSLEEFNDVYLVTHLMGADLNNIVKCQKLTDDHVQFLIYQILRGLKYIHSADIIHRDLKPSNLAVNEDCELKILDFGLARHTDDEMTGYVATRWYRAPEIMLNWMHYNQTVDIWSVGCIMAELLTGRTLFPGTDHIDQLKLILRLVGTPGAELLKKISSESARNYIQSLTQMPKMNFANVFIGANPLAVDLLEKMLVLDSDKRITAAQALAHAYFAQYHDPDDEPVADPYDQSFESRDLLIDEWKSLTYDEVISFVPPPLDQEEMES

In the case of `Fc1ccc(-c2nn3c(c2-c2ccnc4ccccc24)CCC3)nc1`, the IC50 [1] is reported as 11 µM, the IC50 [2] is reported as 0.664 µM and the IC50 [3] is reported as 0.475 µM.
`CCS(=O)(=O)c1ccc2c(-c3c(-c4ccccn4)nn4c3CCC4)ccnc2c1` showed an IC50 [1] of 9.8 µM and an IC50 [3] of over 20 µM.
With `Fc1ccc(-c2c(-c3ccccn3)nn3c2CCC3)cc1` the IC50 [1] was over 20 µM, the IC50 [2] was 3.33 µM and the IC50 [3] was 3.86 µM.
Compound `CCSc1ccc2c(-c3c(-c4ccccn4)nn4c3CCC4)ccnc2c1` has an IC50 [1] of 1.6 µM, an IC50 [2] of 0.326 µM and an IC50 [3] of 0.285 µM.
Compound `OCc1cccc(-c2nn3c(c2-c2ccc(F)cc2)CCC3)n1` has an IC50 [2] of 5.62 µM and an IC50 [3] of 11.8 µM.
`COc1ccc(-c2c(-c3ccccn3)nn3c2CCC3)cc1` gave an IC50 [2] of 4.71 µM and an IC50 [3] of 6.83 µM.
`Clc1ccc2c(-c3c(-c4ccccn4)nn4c3CCC4)ccnc2c1` showed an IC50 [1] of 1.8 µM, an IC50 [2] of 0.282 µM and an IC50 [3] of 0.196 µM.
For `Cc1ccc(-c2c(-c3cccc(C)n3)nn3c2CCC3)cc1`, the IC50 [2] was over 20 µM and the IC50 [3] was over 20 µM.
Compound `Cc1cccc(-c2nn3c(c2-c2ccnc4cc(Cl)ccc24)CCC3)n1` has an IC50 [1] of 0.44 µM, an IC50 [2] of 0.727 µM and an IC50 [3] of 0.093 µM.
In the case of `Fc1ccc(-c2c(-c3cccc(C(F)(F)F)n3)nn3c2CCC3)cc1`, the IC50 [2] is reported as 1.2 µM and the IC50 [3] is reported as 2.55 µM.
Compound `Cc1cccc(-c2n[nH]cc2-c2ccc(O)cc2)n1` has an IC50 [1] of 31 µM.
With `Cc1cccc(-c2nn3c(c2-c2ccc(F)cc2)CCC3)n1` the IC50 [1] was over 20 µM, the IC50 [2] was 0.339 µM and the IC50 [3] was 0.096 µM.
`CC(C)c1cccc(-c2nn3c(c2-c2ccnc4ccccc24)CCC3)n1` showed an IC50 [1] of 15 µM, an IC50 [2] of 2 µM and an IC50 [3] of 2 µM.
`COc1ccc(-c2c(-c3cccc(C)n3)nn3c2CCC3)cc1` showed an IC50 [1] of 4.6 µM, an IC50 [2] of 0.397 µM and an IC50 [3] of 0.304 µM.
With `Cc1cccc(-c2nn3c(c2-c2ccc(O)cc2)CCC3)n1` the IC50 [1] was 4.3 µM, the IC50 [2] was 0.105 µM and the IC50 [3] was 0.022 µM.
In the case of `Cc1cccc(-c2nn3c(c2-c2ccc(F)c(F)c2)CCC3)n1`, the IC50 [2] is reported as 1.04 µM and the IC50 [3] is reported as 1.51 µM.
`CCc1cccc(-c2nn3c(c2-c2ccnc4ccccc24)CCC3)n1` gave an IC50 [1] of 0.62 µM, an IC50 [2] of 0.5 µM and an IC50 [3] of 0.143 µM.
Compound `Cc1cccc(-c2nn3c(c2-c2ccc(S(C)(=O)=O)cc2)CCC3)n1` has an IC50 [2] of over 20 µM and an IC50 [3] of over 20 µM.
With `CCOc1ccc2c(-c3c(-c4cccc(C)n4)nn4c3CCC4)ccnc2c1` the IC50 [1] was 0.059 µM, the IC50 [2] was 0.152 µM and the IC50 [3] was 0.086 µM.
Work on `c1ccc(-c2nn3c(c2-c2ccnc4ccccc24)CCC3)nc1` yielded an IC50 [1] of 7.9 µM, an IC50 [2] of 51 µM and an IC50 [3] of 0.345 µM.
`Cc1cccc(-c2nn3c(c2-c2ccnc4ccccc24)CCC3)n1` gave an IC50 [1] of 0.68 µM, an IC50 [2] of 0.28 µM and an IC50 [3] of 0.094 µM.
